Paper PMC5602538, “Assessment of the Drug Interaction Potential of Unconjugated and GalNAc3-Conjugated 2′-MOE-ASOs” (Molecular Therapy. Nucleic Acids, 2017)

Assays:
BCRP = conditions: Ko143 1 μM, 2 μM prazosin
CYP2C8 = target: T1, CYP2C8 (Homo sapiens, UniProt P10632); conditions: hepatocytes
T1 sequence (P10632 1-490): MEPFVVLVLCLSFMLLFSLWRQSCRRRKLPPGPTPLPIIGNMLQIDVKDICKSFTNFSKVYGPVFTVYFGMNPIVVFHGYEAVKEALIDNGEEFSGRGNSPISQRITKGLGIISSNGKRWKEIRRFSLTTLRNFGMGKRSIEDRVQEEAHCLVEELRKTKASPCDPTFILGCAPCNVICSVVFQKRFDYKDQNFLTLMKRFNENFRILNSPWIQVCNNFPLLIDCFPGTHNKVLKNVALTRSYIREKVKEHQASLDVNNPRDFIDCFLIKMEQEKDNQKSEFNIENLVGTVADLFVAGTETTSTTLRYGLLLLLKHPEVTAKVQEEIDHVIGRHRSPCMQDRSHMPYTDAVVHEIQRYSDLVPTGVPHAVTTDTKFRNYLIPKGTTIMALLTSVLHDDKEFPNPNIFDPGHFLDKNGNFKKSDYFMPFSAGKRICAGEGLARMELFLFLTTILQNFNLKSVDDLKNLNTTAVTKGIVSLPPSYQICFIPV
Description: Preincubations were performed in 50 μL of Williams’ Medium E with 2 mM salicylamide. The salicylamide was included to reduce possible phase II conjugation to the precursor phase I metabolites. […] Human hepatocytes (pooled from 5 donors) were thawed and prepared according to the vendor’s protocol. […] Incubations were carried out at 37°C with 5% CO2. The incubation time was 45 min for phenacetin, diclofenac, dextromethorphan, midazolam, bupropion, chlorzoxazone, and testosterone and 90 min for paclitaxel and (S)-mephenytoin. The reactions were stopped by adding 200 μL of ice-cold acetonitrile (can) with tolbutamide (100 ng/mL) as the internal standard to 100 μL of hepatocyte suspension (1:2, v/v). The 96-well plate was then vortexed at 1,700 rpm for 3 min and centrifuged at 3,500 rpm for 10 min at 20°C. The supernatants were analyzed using liquid chromatography-tandem MS (LC-MS/MS).

CYP1A2 mRNA = test: in vitro; conditions: human
Description: (§1) Upon receipt, sandwich-cultured cryopreserved human hepatocytes (with Matrigel) plated on collagen-coated 24-well plates were inspected under a microscope for general morphology and viability. Fresh culture medium (OptiCulture Hepatocyte Media) was added to each plate that passed the visual inspection. The plates were then placed in an incubator set to 37°C with 5% carbon dioxide (CO2) for overnight acclimation. […] During this time, cells in parallel wells were also treated with 50.0 μM omeprazole (inducer of CYP1A2), 1,000 μM phenobarbital (inducer of CYP2B6), or 10.0 μM rifampicin (inducer of CYP3A4) in triplicate, respectively.
(§2) After collection of the supernatant for catalytic analysis, the remaining cells were washed and lysed with QIAGEN Buffer RLT from the QIAGEN RNeasy Kit. […]
(§3) The activity of each CYP enzyme was measured by comparing the peak area ratio of the corresponding product to the peak area ratio of the internal standard. The fold induction was calculated by dividing the peak area ratio of each individual well from the treatment group by the mean of the peak area ratios obtained from the vehicle control wells. […] The ΔCƬ was calculated as follows: ΔCƬ = CƬ (CYP) − CƬ (GAPDH). […] The ΔΔCƬ was calculated as follows: ΔΔCƬ = Δ CƬ (Treatment) − Δ CƬ (Vehicle). The fold induction of the target CYP was calculated using the following equation: Fold=2^-ΔΔCT.

CYP1A2 = CYP1A2 enzyme activity induction in plated human hepatocytes; conditions: human, probe phenacetin, 100 μM
Description: as §1
(§4) The plates were then incubated at 37°C with 5% CO2 for 60 min. […] Aliquots of the supernatants were analyzed by LC-MS/MS for the formation of acetaminophen, hydroxyl-bupropion, or hydroxyl-midazolam as markers for enzyme activity of CYP1A2, CYP2B6, and CYP3A4, respectively.
as §3, with “The fold induction of the target CYP was calculated using the following equation: Fold=2^-ΔΔCT.” left out

CYP2B6 mRNA = CYP2B6 mRNA induction in plated human hepatocytes; conditions: human
Description: as §1, §2, §3

CYP2B6 = CYP2B6 enzyme activity induction in plated human hepatocytes; conditions: human
Description: as §1, §4
as §3, with “The fold induction of the target CYP was calculated using the following equation: Fold=2^-ΔΔCT.” left out

OAT3 = test system: T2, OAT3; test: OAT3 inhibition study in MDCK cells; assay type: in vitro ADME; conditions: MDCK-II cell monolayer expressing OAT3, probe [3H]-p-aminohippurate; probenecid 100 μM, 10 μM p-aminohippurate; read-out: % inhibition of OAT3-mediated transport of p-aminohippurate, reference inhibitor
T2 construct: expressed in transfected cells; host or cells: MDCK-II
Description: A 96-well cell culture plate containing a monolayer of MDCK-II cells grown on a permeable support and a corresponding receiver tray was used. The basolateral compartment of the culture plate and wells were washed with warm HBSS three times, with wells of the culture plate serving as the apical compartment. The wash was aspirated by adding 150 μL of 37°C HBSS to both compartments. […] The pre-incubation buffer from both compartments was aspirated and 150 μL of the following was added to the basal compartment. […] OATP1B1, 2 μM [^3H]-estradiol-17 β-D-glucuronide; and OATP1B3, 2 μM [^3H]-cholecystokinin octapeptide (CCK-8). […] Plates were incubated at 37°C with orbital shaking at 60 rpm for 5 min. Both sides of the permeable support were washed four times with ice-cold PBS and 60 μL of cell extraction solution was added to each well. Plates were agitated for 15 min at 120 rpm, after which a 30-μL sample of the extract was collected. […] Test article concentrations, including control samples, were evaluated by an LC-MS method. Signal to noise for probe substrates was calculated by dividing the uptake of the probe substrate in transporter-expressing cells by the uptake of probe substrate in control cells not expressing the transporter of interest.

OCT1 = test system: T3, OCT1; test: OCT1 inhibition study in MDCK cells; assay type: in vitro ADME; conditions: MDCK-II cell monolayer expressing OCT1, probe [3H]-MPP+, 2 μM; read-out: % inhibition of OCT1-mediated transport of MPP+, reference inhibitor
T3 construct: expressed in transfected cells; host or cells: MDCK-II
Description: (§5) A 96-well cell culture plate containing a monolayer of MDCK-II cells grown on a permeable support and a corresponding receiver tray was used. The basolateral compartment of the culture plate and wells were washed with warm HBSS three times, with wells of the culture plate serving as the apical compartment. The wash was aspirated by adding 150 μL of 37°C HBSS to both compartments. Plates were incubated at 37°C with orbital shaking at 60 rpm for 15 min for OAT1, OAT3, OCT1, OCT2, OATP1B1, and OATP1B3 (±5 min). The pre-incubation buffer from both compartments was aspirated and 150 μL of the following was added to the basal compartment. […] Test article concentrations, including control samples, were evaluated by an LC-MS method.
(§6) Signal to noise for probe substrates was calculated by dividing the uptake of the probe substrate in transporter-expressing cells by the uptake of probe substrate in control cells not expressing the transporter of interest. Percent inhibition was calculated by dividing the net-transporter-mediated substrate uptake in the presence of the test article or the reference inhibitor by the net-transporter-mediated substrate uptake in the absence of the inhibitor according to the equation: %inhibition=100−(100×(transporter-mediateduptake)withinhibitor/(transporter-mediateduptake)withoutinhibitor).

OCT2 = test system: T4, OCT2; test: OCT2 inhibition study in MDCK cells; assay type: in vitro ADME; conditions: MDCK-II cell monolayer expressing OCT2, probe [14C]-metformin, 10 μM; read-out: % inhibition of OCT2-mediated transport of metformin, reference inhibitor
T4 construct: expressed in transfected cells; host or cells: MDCK-II
Description: as §5, §6

OATP1B1 = test system: T5, OATP1B1; test: OATP1B1 inhibition study in MDCK cells; assay type: in vitro ADME; conditions: MDCK-II cell monolayer expressing OATP1B1, probe [3H]-estradiol-17β-D-glucuronide; rifampicin 100 μM, 2 μM substrate; read-out: % inhibition of OATP1B1-mediated transport of estradiol-17β-D-glucuronide, reference inhibitor
T5 construct: expressed in transfected cells; host or cells: MDCK-II
Description: as §5, §6

OATP1B3 = test system: T6, OATP1B3; test: OATP1B3 inhibition study in MDCK cells; assay type: in vitro ADME; conditions: MDCK-II cell monolayer expressing OATP1B3, probe [3H]-cholecystokinin octapeptide (CCK-8); rifampicin 100 μM, 2 μM CCK-8; read-out: % inhibition of OATP1B3-mediated transport of CCK-8, reference inhibitor
T6 construct: expressed in transfected cells; host or cells: MDCK-II
Description: A 96-well cell culture plate containing a monolayer of MDCK-II cells grown on a permeable support and a corresponding receiver tray was used. The basolateral compartment of the culture plate and wells were washed with warm HBSS three times, with wells of the culture plate serving as the apical compartment. The wash was aspirated by adding 150 μL of 37°C HBSS to both compartments. Plates were incubated at 37°C with orbital shaking at 60 rpm for 15 min for OAT1, OAT3, OCT1, OCT2, OATP1B1, and OATP1B3 (±5 min). The pre-incubation buffer from both compartments was aspirated and 150 μL of the following was added to the basal compartment. […] Samples containing probe substrate were added to 200 μL of scintillation fluid and counted on a 1450 Microbeta (PerkinElmer), whereas samples containing the test article were kept frozen. Test article concentrations, including control samples, were evaluated by an LC-MS method.
Signal to noise for probe substrates was calculated by dividing the uptake of the probe substrate in transporter-expressing cells by the uptake of probe substrate in control cells not expressing the transporter of interest. […]

COc1ccc2c3c([nH]c2c1)[C@H](CC(C)C)N1C(=O)[C@H](CCC(=O)OC(C)(C)C)NC(=O)[C@@H]1C3 [Ko143]
% inhibition of BCRP-mediated transport of prazosin, reference inhibitor (BCRP): 90.4 ± 1.89%

Cc1ccc(C)c(OCCCC(C)(C)C(=O)O[C@@H]2O[C@H](C(=O)O)[C@@H](O)[C@H](O)[C@H]2O)c1 [gemfibrozil glucuronide, reference compound]
IC50 (CYP2C8): 960 nM

COc1ccc2[nH]c([S+]([O-])Cc3ncc(C)c(OC)c3C)nc2c1 (centres unmarked) [omeprazole, reference compound]
fold induction at 72 h, 50 μM (CYP1A2 mRNA): 45.7 ± 4.51 | fold induction at 72 h, 50 μM (CYP1A2): 50.6 ± 3.78

CCC1(c2ccccc2)C(=O)NC(=O)NC1=O [phenobarbital, reference compound]
fold induction at 72 h, 1000 μM (CYP2B6 mRNA): 9.83 ± 0.992 | fold induction at 72 h, 1000 μM (CYP2B6): 5.03 ± 1.06

CCCN(CCC)S(=O)(=O)c1ccc(C(=O)O)cc1 [probenecid, reference compound]
inhibition at 5 min, 100 μM (OAT3): ≤ 98.3%

C=C[C@H]1C[N@@]2CC[C@H]1C[C@@H]2[C@@H](O)c1ccnc2ccc(OC)cc12 [quinidine]
inhibition at 5 min, 1000 μM (OCT1): 91.2 ± 1.57% | inhibition at 5 min, 1000 μM (OCT2): 98.5 ± 1.34%

CO[C@H]1/C=C/O[C@@]2(C)Oc3c(C)c(O)c4c(O)c(c(/C=N/N5CCN(C)CC5)c(O)c4c3C2=O)NC(=O)/C(C)=C\C=C\[C@H](C)[C@H](O)[C@@H](C)[C@@H](O)[C@@H](C)[C@H](OC(C)=O)[C@@H]1C [rifampicin, reference compound]
inhibition at 5 min, 100 μM (OATP1B1): 98.8 ± 1.09% | inhibition at 5 min, 100 μM (OATP1B3): 99 ± 0.955%
